From ChEMBL document CHEMBL2390940, “Synthesis and receptor binding studies of novel 4,4-disubstituted arylalkyl/arylalkylsulfonyl piperazine and piperidine-based derivatives as a new class of σ1 ligands” (Eur J Med Chem, 2013)

How the values were obtained:
[1] = Displacement of [3H]DTG from sigma2 receptor in Sprague-Dawley rat liver membrane after 150 mins by liquid scintillation counting analysis; assay type: cell membranes
[2] = target: Sigma non-opioid intracellular receptor 1 (Cavia porcellus, UniProt Q60492)
Sigma non-opioid intracellular receptor 1, sequence (Q60492 whole entry): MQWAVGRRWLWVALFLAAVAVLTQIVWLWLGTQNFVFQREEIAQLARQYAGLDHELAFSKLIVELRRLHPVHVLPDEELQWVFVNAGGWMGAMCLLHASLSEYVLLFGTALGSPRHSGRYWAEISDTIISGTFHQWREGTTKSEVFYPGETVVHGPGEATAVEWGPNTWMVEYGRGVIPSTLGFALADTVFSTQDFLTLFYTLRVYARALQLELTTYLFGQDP

[3] = Binding affinity to sigma receptor (unknown origin); parameters: species or system Homo sapiens

O=S(=O)(Cc1ccccc1)N1CCN(Cc2ccccc2)CC1
Ki [1]: 48.4 nM
Ki [2]: 11.2 nM

O=S(=O)(/C=C/c1ccccc1)N1CCN(Cc2ccccc2)CC1
Ki [1]: 8140 nM
Ki [2]: 201 nM

O=S(=O)(Cc1ccccc1)N1CCN(Cc2ccc(Br)cc2)CC1
Ki [1]: 288 nM
Ki [2]: 13.4 nM

c1ccc(CN2CCN(Cc3ccccc3)CC2)cc1
Ki [1]: 1270 nM

c1ccc(CCCN2CCC(Cc3ccccc3)CC2)cc1
Ki [1]: 3.3 nM
Ki [2]: 0.4 nM

OC[C@@H]1CN(CCc2ccccc2)CCN1Cc1ccccc1
Ki [1]: 177 nM
Ki [2]: 38 nM

Clc1ccc(/C=C/CN2CCN(Cc3ccccc3)CC2)cc1
Ki [3]: 0.3 nM

O=S(=O)(Cc1cccc(Cl)c1)N1CCN(Cc2ccccc2)CC1
Ki [1]: 134 nM
Ki [2]: 68.1 nM

O=S(=O)(Cc1cccc(Br)c1)N1CCN(Cc2ccccc2)CC1
Ki [1]: 148 nM
Ki [2]: 29.9 nM

O=S(=O)(Cc1cccc(I)c1)N1CCN(Cc2ccccc2)CC1
Ki [1]: 88.8 nM
Ki [2]: 2.7 nM

Cc1cccc(CS(=O)(=O)N2CCN(Cc3ccccc3)CC2)c1
Ki [1]: 89.4 nM
Ki [2]: 35.9 nM

O=S(=O)(Cc1ccccc1)N1CCN(Cc2cccc(F)c2)CC1
Ki [1]: 181 nM
Ki [2]: 68.7 nM

O=S(=O)(Cc1ccccc1)N1CCN(Cc2cccc(Cl)c2)CC1
Ki [1]: 174 nM
Ki [2]: 51.8 nM

O=S(=O)(Cc1ccccc1)N1CCN(Cc2cccc(I)c2)CC1
Ki [1]: 117 nM
Ki [2]: 1.8 nM

Cc1cccc(CN2CCN(S(=O)(=O)Cc3ccccc3)CC2)c1
Ki [1]: 151 nM
Ki [2]: 15 nM

COc1ccc(CN2CCN(S(=O)(=O)Cc3ccccc3)CC2)cc1
Ki [1]: 2130 nM
Ki [2]: 192 nM

O=S(=O)(Cc1ccccc1)N1CCC(Cc2ccccc2)CC1
Ki [1]: 38.9 nM
Ki [2]: 9.9 nM

O=S(=O)(Cc1cccc(Cl)c1)N1CCC(Cc2ccccc2)CC1
Ki [1]: 199 nM
Ki [2]: 40 nM

O=S(=O)(Cc1cccc(Br)c1)N1CCC(Cc2ccccc2)CC1
Ki [1]: 25.9 nM
Ki [2]: 1.6 nM

O=S(=O)(Cc1cccc(I)c1)N1CCC(Cc2ccccc2)CC1
Ki [1]: 91.8 nM
Ki [2]: 0.96 nM

Cc1cccc(CS(=O)(=O)N2CCC(Cc3ccccc3)CC2)c1
Ki [1]: 48.9 nM
Ki [2]: 4.7 nM

O=S(=O)(c1ccccc1)N1CCC(Cc2ccccc2)CC1
Ki [1]: 56.7 nM
Ki [2]: 24.3 nM

O=S(=O)(c1ccc(Cl)cc1)N1CCC(Cc2ccccc2)CC1
Ki [1]: 778 nM
Ki [2]: 551 nM

O=S(=O)(c1ccc(Cl)cc1)N1CCN(Cc2ccccc2)CC1
Ki [1]: 1550 nM
Ki [2]: 969 nM

O=S(=O)(CCc1ccccc1)N1CCC(Cc2ccccc2)CC1
Ki [1]: 187 nM

O=S(=O)(CCc1ccccc1)N1CCN(Cc2ccccc2)CC1
Ki [1]: 191 nM
Ki [2]: 78.4 nM

O=S(=O)(/C=C/c1ccccc1)N1CCC(Cc2ccccc2)CC1
Ki [1]: 1960 nM
Ki [2]: 138 nM

O=S(=O)(/C=C/c1ccc(Br)cc1)N1CCC(Cc2ccccc2)CC1
Ki [1]: 248 nM
Ki [2]: 843 nM

O=S(=O)(/C=C/c1ccc(Br)cc1)N1CCN(Cc2ccccc2)CC1
Ki [1]: 485 nM
Ki [2]: 1080 nM

O=S(=O)(c1ccccc1)N1CCN(Cc2ccccc2)CC1
Ki [1]: 87.1 nM
Ki [2]: 28.4 nM

c1ccc(CCCN2CCN(Cc3ccccc3)CC2)cc1
Ki [2]: 20 nM

CC(C)=CCN1CC[C@]2(C)c3cc(O)ccc3C[C@H]1[C@H]2C [(+)-PENTAZOCINE]
Ki [1]: 1870 nM

Cc1ccccc1NC(=N)Nc1ccccc1C [DITOLYLGUANIDINE]
Ki [1]: 58.4 nM

O=C(CCCN1CCC(O)(c2ccc(Cl)cc2)CC1)c1ccc(F)cc1 [HALOPERIDOL]
Ki [1]: 43.5 nM
